For test [1], the system named is F. nucleatum (Fn) biofilm. Kind of test: Fn biofilm formation induced by Fn AI-2, crystal violet staining. It is filed as cell-based, F. nucleatum (ATCC 25586). Conditions: Fn + Fn AI-2 10% (v/v), 48-72 h, Fn/AI-2 control 1.5, Fn 0.46. The method, then: To test biofilm formation by Fn, a Fn culture broth (2 ml; a negative control group, the number of bacteria: 2×10^7/ml), a mixture of Fn culture broth (2 ml) and F. nucleatum AI-2 (purified from F. nucleatum secretary material of F. nucleatum culture broth using a C18 Sep-Pak reverse-phase column (Waters Co., Milford, Mass.); hereinafter, referred to as ‘Fn AI-2’; 10% (v/v) with respect to the total volume of the mixture with Fn culture broth), or a mixture of Fn culture broth (2 ml) and Fn AI-2 (10% (v/v) with respect to the total volume of the mixture with Fn culture broth) and each of QSI candidates was added to a 24-well plate with a glass slip (round, 12 mm radius), and cultured under anaerobic conditions for 48-72 hours. As the QSI candidates, sugars (D-rib, D-gal, D-Glu, D-Man, or D-ara) were used in an amount of 2 mM, and the furanone compound [(5Z)-4-bromo-5-(bromomethylene)-2(5H)-furanone] was used in an amount of 2 μM.
(§1) Biofilms formed on the cover slips were stained with 10% crystal violet [Tris(4-(dimethylamino)phenyl)methylium chloride] for 10 minutes, washed three times with PBS, and destained with 1 ml of acetone-alcohol (20:80, vol/vol). The optical density at 590 nm of the destaining solution containing crystal violet was measured using a microplate reader (a Wallac Victor3 microtiter, PerkinElmer Life Sciences, Waltham, Mass.). The smaller optical density (OD590) measured at 590 nm represents more inhibition of biofilm formation, that is, higher quorum sensing inhibitory effect of the used QSI candidate.

In test [2] the test system is P. gingivalis (Pg) biofilm. The experiment in a line: Pg biofilm formation induced by Fn AI-2, crystal violet staining. It is filed as cell-based, P. gingivalis (ATCC 33277). Particulars: Pg + Fn AI-2 10% (v/v), Fur 2 μM, 48-72 h; Pg/AI-2 control 2.00, Pg 0.66. The method, then: To test biofilm formation by Pg, a test was performed in the same manner as in Example 3. That is, a Pg culture broth (2 ml; negative control group, the number of bacteria: 4×10^8/ml), a mixture of Pg culture broth (2 ml) and Fn AI-2 (10% (v/v) with respect to the total volume of the mixture with Pg culture broth), or a mixture of Pg culture broth (2 ml) and Fn AI-2 (10% (v/v) with respect to the total volume of the mixture with Fn culture broth) and D-gal (2 mM) was added to a 24-well plate with a glass slip (round, 12 mm radius), and cultured under anaerobic conditions for 48˜72 hours. For comparison, 2 μM of the furanone compound [(5Z)-4-bromo-5-(bromomethylene)-2(5H)-furanone] was used instead of D-gal (2 mM) to perform the same test.
as §1

Test [3] has as its system T. forsythia (Tf) biofilm. The experiment in a line: Tf biofilm formation induced by Fn AI-2, crystal violet staining. Type of test: cell-based, T. forsythia (ATCC 43037). Conditions: Tf + Fn AI-2 10% (v/v), Fur 2 μM, 48-72 h; Tf/AI-2 control 0.48, Tf 0.32. The method, then:
To test biofilm formation by Tf, a test was performed in the same manner as in Example 3. That is, a Tf culture broth (2 ml; a negative control group, the number of bacteria: 2×10^8/ml), a mixture of Tf culture broth (2 ml) and Fn AI-2 (10% (v/v) with respect to the total volume of the mixture with Tf culture broth), or a mixture of Tf culture broth (2 ml) and Fn AI-2 (10% (v/v) with respect to the total volume of the mixture with Tf culture broth) and D-gal (2 mM) was added to a 24-well plate with a glass slip (round, 12 mm radius), and cultured under anaerobic conditions for 48-72 hours. For comparison, 2 mM of D-rib or 2 μM of the furanone compound [(5Z)-4-bromo-5-(bromomethylene)-2(5H)-furanone] was used instead of D-gal to perform the same test.
as §1

Test [4] concerns P. gingivalis (Pg) biofilm. The experiment in a line: Pg biofilm formation induced by Fn secretory material, transwell, crystal violet. It is filed as cell-based. Particulars: Fn upper / Pg lower chamber, Fur 2 μM, 48-72 h, Fn/Pg control 0.57, Pg alone 0.30. The method, then: (§2) In order to examine efficacies of quorum sensing inhibitor (QSI) candidates on biofilm formation of periodontopathogenic bacteria which is induced by a secretory material of F. nucleatum (Fn), a test was performed using a transwell system. AI-2 naturally secreted by Fn is contained in the secretory material of Fn. Therefore, in the test using the transwell system, Fn AI-2 was not directly added to bacteria, but Fn was put in an upper chamber and Pg or Tf was put in a lower chamber. Biofilms cultured and formed in the presence or absence of QSI candidates were stained with crystal violet, followed by analysis. These conditions are to evaluate whether Pg or Tf biofilm formation is influenced by not a purified AI-2 but an AI-2-containing secretory material naturally secreted by Fn, and whether QSI candidates such as D-gal is able to inhibit the biofilm formation if the biofilm is then formed.
(§3) More specifically, the transwell system (24-well) has an upper chamber and a lower chamber which are separated from each other by a membrane of 0.4 μm. 500 μl of F. nucelatum (Fn) culture broth (the number of bacteria: 2×10^7 CFU/ml) was cultured in the upper chamber. A glass slip was placed in the lower chamber, and then the same number of P. gingivalis(Pg) or T. forsythia(Tf) was inoculated in 1 ml of medium and cultured for 48-72 hours. The same QSI candidates were added to the upper and lower chambers. As the QSI candidates, 2 mM of sugar (D-rib or D-gal) was used and 2 μM of the furanone compound [(5Z)-4-bromo-5-(bromomethylene)-2(5H)-furanone] was used. In order to examine whether biofilm formation of the bacteria in the lower chamber is influenced by Fn secretory material and QSI candidates, the biofilms formed on the glass slip were stained with crystal violet, and then quantified (see Examples 3 to 5).

In test [5] the test system is T. forsythia (Tf) biofilm. The experiment in a line: Tf biofilm formation induced by Fn secretory material, transwell, crystal violet. Conditions: Fn upper / Tf lower chamber, Fur 2 μM, 48-72 h, Fn/Tf control 0.55, Tf alone 0.17. Type of test: cell-based. Here is the method: as §2, §3
The next test concerns S. mutans (Sm) biofilm. Kind of test: S. mutans biofilm formation, crystal violet staining. Type of test: cell-based, Streptococcus mutans (ATCC 25175). Here is the method:
2 mL (2×10^7/ml) of the culture broth of a representative cariogenic bacterium S. mutans (Sm) and 2 mL (2×10^7/ml) of the culture broth of one of normal oral flora, S. oxalis (SO) were added to a saliva-coated glass slip (round, 12 mm radius), respectively and cultured with 0 mM or 2 mM of D-galactose to form biofilms. The formed biofilms were stained with crystal violet in the same manner as in Examples 3-6 to test biofilm formation according to the presence of D-galactose. Further, the biofilms were stained with fluorescent materials using the live/dead-BacLight viability kit (Invitrogen, Grand Island, N.Y., USA), followed by analysis. For comparison, 2 μM of the furanone compound was used instead of D-galactose to perform the same test.

The next test deals with S. oxalis (So) biofilm. The experiment in a line: S. oxalis biofilm formation, crystal violet staining. It is filed as cell-based, Streptococcus oxalis (ATCC 9811). Particulars: So on saliva-coated glass slip, Fur 2 uM; So control 0.59. Here is the method: 2 mL (2×10^7/ml) of the culture broth of a representative cariogenic bacterium S. mutans (Sm) and 2 mL (2×10^7/ml) of the culture broth of one of normal oral flora, S. oxalis (SO) were added to a saliva-coated glass slip (round, 12 mm radius), respectively and cultured with 0 mM or 2 mM of D-galactose to form biofilms. […] Further, the biofilms were stained with fluorescent materials using the live/dead-BacLight viability kit (Invitrogen, Grand Island, N.Y., USA), followed by analysis. For comparison, 2 μM of the furanone compound was used instead of D-galactose to perform the same test.

The mark [6] stands for this setting: sugar 2 mM, smaller OD = more inhibition of biofilm.

Regarding `O=C[C@@H](O)[C@H](O)[C@H](O)CO` [D-ara, D-arabinose], the OD590 nm in test [1] (setting [6]) turned out to be 1.37.

For `O=C[C@@H](O)[C@@H](O)[C@H](O)[C@H](O)CO` [D-man, D-mannose], in test [1] (setting [6]), the OD590 nm is 1.16.

In the case of `O=C[C@H](O)[C@@H](O)[C@H](O)[C@H](O)CO` [D-glu, D-glucose], the OD590 nm in test [1] (setting [6]) is 1.15.

With `O=C1C=C(Br)/C(=C/Br)O1` [Fur, (5Z)-4-bromo-5-(bromomethylene)-2(5H)-furanone, reference compound], the OD590 nm in test [1] (Fur 2 μM) was found to be 0.49; in test [2], 0.98; in test [3] it was 0.35; in test [4] it was 0.30; in the test on S. mutans (Sm) biofilm (Sm on saliva-coated glass slip, Fur 2 μM, Sm control 0.48) it was 0.51. The values for the OD590 (in test [5]; with S. oxalis (So) biofilm) were 0.39 and 0.64, respectively. The “inhibitory effect on Sm biofilm formation, in words” value in the test on S. mutans (Sm) biofilm (crystal violet, D-gal 2 mM, furanone compound 2 μM) is “hardly exhibited the inhibitory effect”.

For the origin of these results see patent US20190224222A1, “METHOD OF INHIBITING QUORUM SENSING USING D-GALACTOSE” (Seoul National University R&DB Foundation, priority 2014, published 2019).
